Experimental findings from patent US20110044963A1, “Method of Testing a Patient for Hypertension and Related Method of Treatment and Test Kit” (priority 2009, published 2011) are described below.

Experiment [1] concerns rats infused with angiotensin II. Description: Vasoconstriction hypertension model (angiotensin II infusion), urinary angiotensinogen excretion and hypertension. It is filed as in vivo, rat. The conditions noted are these: for angiotensinogen excretion (in words): angiotensin II treated rats, compared with Sham rats; for UAGT (Final) / UAGT (Initial): male rats, angiotensin infusion model; for UAGT (Final): final measurement, Sham 2.4 ± 0.5; for UAGT (Initial): initial measurement. The procedure: (§1) Tests were performed to determine whether nonpregnant rats of one of two models of human essential hypertension would create a problem with respect to the other model. More specifically, a volume expansion model included taking out one kidney, thereby accelerating the process of developing hypertension, plus the replacement of drinking water with saline and weekly administration of DOCA, a powerful mineralocorticoid in order to ensure that the salt present in the saline is retained in the rat. This was compared with a model used to induce vasoconstriction by infusing a powerful vasoconstrictor, angiotensin II. It was theorized that the use of an antagonist of MBG, resibufogenin (“RBG”) would ameliorate the hypertension in volume expanded animals and would have no effect on the rats infused with angiotensin II.
(§2) The test indicates the group of rats from a Sham (control) rat with measurements being taken initially and finally. It is noted that, in the NDS rats, which were subjected to nephrectomy and DOCA plus saline, there was no significant increase in the excretion of angiotensinogen. […] The RBG, as expected, also had no effect on the hypertension induced by angiotensin infusion.

The test system of experiment [2] is volume expansion model rats (nephrectomy DOCA saline). Put plainly: Volume expansion hypertension model (nephrectomy, DOCA, saline), urinary angiotensinogen excretion. Format: in vivo, rat. How it is done:
as §1, §2

As to `C[C@]12CC[C@H](O)C[C@H]1CC[C@@H]1[C@@H]2CC[C@]2(C)[C@@H](c3ccc(=O)oc3)C[C@H]3O[C@]132` [RBG, resibufogenin], the “effect on the hypertension induced by angiotensin infusion” value in experiment [1] (angiotensin II infused rats) is reported as “no effect”. In experiment [1], the “angiotensinogen excretion (in words)” value was “no effect”, the “UAGT (Final)” value was 7.8 ± 0.4 nmol/day and the “UAGT (Initial)” value is 2.6 ± 0.2 nmol/day. Also, the “increase in angiotensinogen (in words)” value in experiment [2] (NDSR rats: nephrectomy, DOCA plus saline, treated with resibufogenin) is reported as “no meaningful increase”. Further, the “UAGT (Final)” value in experiment [2] (male rats, nephrectomy DOCA saline model, final measurement, NDS without RBG 2.2 ± 0.3) was 2.0 ± 0.2 nmol/day.

With “angiotensin II (DRVYIHPF; Angiotensin-2; UniProt P01019 25-32, looked up) [powerful vasoconstrictor, an octapeptide, infused to induce vasoconstriction]”, in experiment [1], the “angiotensinogen excretion (in words)” value is “very substantial increase”, the “UAGT (Final)” value turned out to be 7.1 ± 0.5 nmol/day and the “UAGT (Initial)” value is 2.6 ± 0.2 nmol/day.
